Assay type in all cases: biochemical
For one assay, the target named is CDK5/p25NCK (Homo sapiens, UniProt Q00535). Put plainly: ADP-Glo kinase assay on CDK enzymatic activity, CDK5/p25NCK. The note with it: 10 concentrations from 10 μM, 4-fold, 60 min room temperature. The text has this:
(§1) Test samples: the compounds of the present invention, having structures shown above.
(§2) ADP-Glo Kinase Assay (ADP-Glo kinase kit), DMSO (dimethyl sulfoxide), CDK9/CycT1 (cyclin-dependent kinase 9/cyclin T1), CDK tide (cyclin-dependent kinase substrate peptide fragments), CDK1/CycE1 (cyclin-dependent kinase 1/cyclin E1), CDK2/CycA2 (cyclin-dependent kinase 2/cyclin A2), CDK3/CycE1 (cyclin-dependent kinase 3/cyclin E1), CDK4/CycD3 (cyclin-dependent kinase 4/cyclin D3), CDK5/p25NCK (cyclin-dependent kinase 5/p25), and AZD 4573.
(§3) A 384-well white plate, a 96-well plate, a microplate oscillator, a centrifuge, and a microplate reader.
(§4) The compounds were dissolved in DMSO and diluted 4-fold in the 96-well plate to obtain stock solutions with 10 concentration gradients, and added into a 384-well plate system to obtain a series of 10 concentration gradients of compound solutions with final concentrations of 10 μM starting and 4-fold gradient decreasing. 1 μM AZD4573 was used as compound positive control (PC) and 0.5% DMSO as solvent vehicle control (VC), ten duplicated wells each for PC and VC.
(§5) 1 μL of compound solution and 2 μL of 2× kinase solution were transferred to each well, and the plate was centrifuged at 1000 g for 30 s and left at room temperature for 10 min. A mixture of 2× substrate and ATP was prepared in 1× kinase buffer. The reaction was started after adding 2 μL of substrate and ATP into the plate. The plate was centrifuged at 1000 g for 30 s. The assay plate was closed and left at room temperature for 60 min. The reaction system was added with 4 μL of ADP Glo reagent, centrifuged at 1000 rpm for 1 min, and incubated at room temperature for 40 min. The reaction system was added with 8 μL of kinase assay reagent, centrifuged at 1000 rpm for 1 min and incubated at room temperature for 40 min. The […] was read on Biotek.
(§6) The inhibition rate was calculated according to the following formula: […]
(§7) Lumcmpd: compound fluorescence reading; Lumpositive: average value of the fluorescence reading of positive compound control; Lumvehicle: average value of the fluorescence reading of solvent vehicle control.
(§8) IC50 values were fitted using GraphPad 7.0 based on inhibition rates of compounds at different concentrations.
(In general: ADP-Glo turns the ADP formed in a reaction into a luminescent signal.)

For a further assay, the target named is CDK2/CycA2 (Homo sapiens, UniProt P24941). The experiment in a line: ADP-Glo kinase assay on CDK enzymatic activity, CDK2/CycA2. The note with it: 10 concentrations from 10 μM, 4-fold, 60 min room temperature. Put shortly: (§9)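 Steps: compound (10 μM top, 4-fold series) plus kinase, 10 min RT; add substrate/ATP mix, 60 min RT; ADP-Glo reagent 40 min; detection reagent 40 min; read luminescence. Inhibition referenced to AZD4573 (1 μM) and DMSO vehicle; IC50 by nonlinear fit.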

A further assay addresses CDK3/CycE1 (Homo sapiens, UniProt Q00526). Put plainly: ADP-Glo kinase assay on CDK enzymatic activity, CDK3/CycE1. Conditions: 10 concentrations from 10 μM, 4-fold, 60 min room temperature.
Text: as §1, §2, §3, §4, §5, §6, §7, §8

In the next assay the target is CDK1/CycE1 (Homo sapiens, UniProt P06493). Put plainly: ADP-Glo kinase assay on CDK enzymatic activity, CDK1/CycE1. Conditions: ADP-Glo; 10 concentrations from 10 μM, 4-fold; 60 min room temperature; read-out: CDK1/CycE1/nM (IC50). Put shortly: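 Compounds in 10-point 4-fold dilutions from 10 μM final, preincubated 10 min with kinase, then substrate/ATP added; 60 min reaction at room temperature. ADP-Glo luminescence read.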

In a further assay the target is CDK9/CycT1 (Homo sapiens, UniProt P50750). Put plainly: ADP-Glo kinase assay on CDK enzymatic activity, CDK9/CycT1. The note with it: 10 concentrations from 10 μM, 4-fold, 60 min room temperature. Put shortly: as §9
Chain of CDK9/CycT1 (P50750 whole entry): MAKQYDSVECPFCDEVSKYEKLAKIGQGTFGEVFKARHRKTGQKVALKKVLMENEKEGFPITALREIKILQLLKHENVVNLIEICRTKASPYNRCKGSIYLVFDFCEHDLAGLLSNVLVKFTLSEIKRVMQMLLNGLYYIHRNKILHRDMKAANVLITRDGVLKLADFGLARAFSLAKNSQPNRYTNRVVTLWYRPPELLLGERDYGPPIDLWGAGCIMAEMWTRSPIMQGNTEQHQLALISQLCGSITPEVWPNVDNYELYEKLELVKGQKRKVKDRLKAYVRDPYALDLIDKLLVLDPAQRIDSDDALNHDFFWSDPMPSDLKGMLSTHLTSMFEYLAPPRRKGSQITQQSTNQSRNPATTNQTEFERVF
Chain of CDK9/CycT1 (O60563 whole entry partner): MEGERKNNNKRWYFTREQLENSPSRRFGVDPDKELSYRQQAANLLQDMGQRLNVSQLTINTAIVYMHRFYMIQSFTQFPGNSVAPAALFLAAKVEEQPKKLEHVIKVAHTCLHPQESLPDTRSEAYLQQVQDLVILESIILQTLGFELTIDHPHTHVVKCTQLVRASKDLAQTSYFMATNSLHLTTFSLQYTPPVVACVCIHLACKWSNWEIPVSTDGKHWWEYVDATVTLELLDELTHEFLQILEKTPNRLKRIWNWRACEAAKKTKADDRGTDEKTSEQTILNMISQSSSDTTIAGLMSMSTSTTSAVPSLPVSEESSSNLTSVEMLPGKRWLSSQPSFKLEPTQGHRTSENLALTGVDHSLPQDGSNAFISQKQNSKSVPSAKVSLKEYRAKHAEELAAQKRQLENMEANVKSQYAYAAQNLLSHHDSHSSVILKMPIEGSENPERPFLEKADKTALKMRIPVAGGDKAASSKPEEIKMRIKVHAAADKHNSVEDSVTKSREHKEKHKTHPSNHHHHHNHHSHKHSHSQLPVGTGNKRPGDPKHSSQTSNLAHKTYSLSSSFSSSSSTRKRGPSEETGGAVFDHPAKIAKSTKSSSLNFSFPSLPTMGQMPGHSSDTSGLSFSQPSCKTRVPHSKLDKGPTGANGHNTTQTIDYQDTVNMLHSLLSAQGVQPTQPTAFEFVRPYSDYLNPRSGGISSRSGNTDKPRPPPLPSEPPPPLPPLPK

Chain of CDK3/CycE1 (Q00526 whole entry, species assumed): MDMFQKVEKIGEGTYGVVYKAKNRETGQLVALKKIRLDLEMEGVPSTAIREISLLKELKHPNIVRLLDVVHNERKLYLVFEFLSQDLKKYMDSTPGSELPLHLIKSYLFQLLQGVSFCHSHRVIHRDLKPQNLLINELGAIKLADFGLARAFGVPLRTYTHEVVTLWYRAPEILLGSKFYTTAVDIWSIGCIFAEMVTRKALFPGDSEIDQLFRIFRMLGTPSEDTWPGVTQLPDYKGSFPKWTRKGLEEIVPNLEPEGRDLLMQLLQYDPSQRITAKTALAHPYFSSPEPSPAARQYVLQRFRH
Chain of CDK3/CycE1 (P24864 whole entry partner, species assumed): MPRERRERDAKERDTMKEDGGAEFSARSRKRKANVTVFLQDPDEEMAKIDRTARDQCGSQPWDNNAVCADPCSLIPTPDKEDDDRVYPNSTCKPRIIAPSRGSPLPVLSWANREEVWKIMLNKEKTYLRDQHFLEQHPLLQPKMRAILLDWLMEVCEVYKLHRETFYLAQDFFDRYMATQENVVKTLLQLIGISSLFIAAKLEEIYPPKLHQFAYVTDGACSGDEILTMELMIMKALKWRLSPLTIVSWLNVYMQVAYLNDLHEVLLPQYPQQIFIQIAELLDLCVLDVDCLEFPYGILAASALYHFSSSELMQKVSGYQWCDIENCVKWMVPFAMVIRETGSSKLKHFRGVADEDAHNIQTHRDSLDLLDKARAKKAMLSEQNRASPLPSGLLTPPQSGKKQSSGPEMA
Chain of CDK5/p25NCK (Q00535 whole entry, species assumed): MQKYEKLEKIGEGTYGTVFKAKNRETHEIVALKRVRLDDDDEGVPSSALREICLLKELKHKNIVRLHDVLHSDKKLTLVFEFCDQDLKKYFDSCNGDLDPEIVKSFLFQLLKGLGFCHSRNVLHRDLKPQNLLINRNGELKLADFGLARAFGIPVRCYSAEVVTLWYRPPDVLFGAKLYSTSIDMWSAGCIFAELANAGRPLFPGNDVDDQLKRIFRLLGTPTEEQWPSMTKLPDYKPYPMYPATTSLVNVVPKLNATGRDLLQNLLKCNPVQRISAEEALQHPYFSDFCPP
Chain of CDK5/p25NCK (Q15078 99-307 partner limits assumed, species assumed): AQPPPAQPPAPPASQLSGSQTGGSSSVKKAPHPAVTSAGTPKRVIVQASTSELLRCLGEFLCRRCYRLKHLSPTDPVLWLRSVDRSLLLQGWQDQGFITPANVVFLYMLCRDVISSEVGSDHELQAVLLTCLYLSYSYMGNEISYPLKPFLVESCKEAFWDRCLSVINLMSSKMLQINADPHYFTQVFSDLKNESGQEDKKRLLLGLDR
Chain of CDK1/CycE1 (P06493 whole entry, species assumed): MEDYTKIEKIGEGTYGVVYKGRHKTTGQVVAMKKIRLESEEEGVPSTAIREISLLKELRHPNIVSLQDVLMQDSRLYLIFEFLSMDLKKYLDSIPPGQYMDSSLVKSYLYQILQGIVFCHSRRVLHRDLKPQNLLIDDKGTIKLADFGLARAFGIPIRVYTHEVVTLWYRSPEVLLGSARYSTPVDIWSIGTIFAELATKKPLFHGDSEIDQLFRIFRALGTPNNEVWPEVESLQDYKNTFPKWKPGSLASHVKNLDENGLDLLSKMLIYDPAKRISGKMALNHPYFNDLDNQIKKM
Chain of CDK1/CycE1 (P24864 whole entry partner, species assumed): as the sequence (P24864 whole entry partner, species assumed) above

`CC(C)Nc1nc(C#N)cc2cnc(N[C@H]3C[C@@H](N)C3)nc12` [Compound 126, 2-(((1s,3s)-3-aminocyclobutyl)amino)-8-(isopropylamino)pyrido[3,4-d]pyrimidine-6-carbonitrile]: the IC50 on CDK5/p25NCK turned out to be 238 nM; against CDK2/CycA2, 181 nM; against CDK3/CycE1 it was 287 nM; at CDK1/CycE1 it was 95 nM; on CDK9/CycT1, 2 nM.

`CC(C)(C)Nc1nc(C(F)F)cc2cnc(NC3CCNCC3)nc12` [Compound C2, N^8-(tert-butyl)-6-(difluoromethyl)-N^2-(piperidin-4-yl)pyrido[3,4-d]pyrimidine-2,8-diamine]: the IC50 on CDK5/p25NCK stood at 465 nM; on CDK2/CycA2, 48 nM; at CDK3/CycE1 it was 53 nM; on CDK1/CycE1 it was 48 nM; against CDK9/CycT1 it was 4 nM.

Take `CC(C)Nc1nc(C#N)cc2cnc(N[C@H]3CCCNCC3)nc12` [Compound 131, (S)-2-(azepan-4-ylamino)-8-(isopropylamino)pyrido[3,4-d]pyrimidine-6-carbonitrile]: the IC50 against CDK5/p25NCK was 1530 nM; against CDK2/CycA2, 388 nM; on CDK3/CycE1, 629 nM; at CDK1/CycE1, 678 nM; at CDK9/CycT1, 6 nM.

As for `CC(C)Nc1nc(C#N)cc2cnc(NC34CC(N)(C3)C4)nc12` [Compound 128, 2-((3-aminobicyclo[1.1.1]pentan-1-yl)amino)-8-(isopropylamino)pyrido[3,4-d]pyrimidine-6-carbonitrile], the IC50 turned out to be 65 nM against CDK5/p25NCK; 54 nM against CDK2/CycA2; 34 nM against CDK3/CycE1; 43 nM at CDK1/CycE1; 2 nM at CDK9/CycT1.

For `CC(C)Nc1nc(C#N)cc2cnc(N[C@H]3CCCCNC3)cc12` [Compound 142, (S)-7-(azepan-3-ylamino)-1-(isopropylamino)-2,6-naphthyridine-3-carbonitrile], the IC50 is 306 nM against CDK5/p25NCK; 600 nM against CDK2/CycA2; 66 nM against CDK3/CycE1; 90 nM at CDK1/CycE1; 2 nM on CDK9/CycT1.

For `CC(C)Oc1nc(C#N)cc2cnc(N[C@H]3CCCNC3)cc12` [Compound 153, (S)-1-(isopropoxy)-7-(piperidin-3-ylamino)-2,6-naphthyridine-3-carbonitrile], the IC50 against CDK5/p25NCK worked out at 706 nM; at CDK2/CycA2 it was 562 nM; on CDK3/CycE1, 67 nM; at CDK1/CycE1, 133 nM; against CDK9/CycT1, 2 nM.

On to `CC(C)Nc1nc(C#N)cc2cnc(N[C@H]3C[C@H](N)C3)nc12` [Compound 127, 2-(((1r,3r)-3-aminocyclobutyl)amino)-8-(isopropylamino)pyrido[3,4-d]pyrimidine-6-carbonitrile], for which the IC50 on CDK5/p25NCK is 46 nM; against CDK2/CycA2, 14 nM; against CDK3/CycE1, 8 nM; on CDK1/CycE1, 10 nM; at CDK9/CycT1, 1 nM.

`N#Cc1cc2cnc(N[C@H]3CCCNC3)cc2c(NC2CCC2)n1` [Compound 144, (S)-1-(cyclobutylamino)-7-(piperidin-3-ylamino)-2,6-naphthyridine-3-carbonitrile]: the IC50 on CDK5/p25NCK amounted to 195 nM; against CDK2/CycA2, 146 nM; on CDK3/CycE1, 28 nM; on CDK1/CycE1, 90 nM; against CDK9/CycT1 it was 2 nM.

As for `CC1(Nc2nc(C#N)cc3cnc(N[C@H]4CCCNC4)cc23)CC1` [Compound 148, (S)-1-((1-methylcyclopropyl)amino)-7-(piperidin-3-ylamino)-2,6-naphthyridine-3-carbonitrile], the IC50 on CDK5/p25NCK is 165 nM; against CDK2/CycA2, 171 nM; against CDK3/CycE1, 49 nM; at CDK1/CycE1 it was 104 nM; against CDK9/CycT1, 1 nM.

Consider `CC(C)Nc1nc(C#N)cc2cnc(N[C@H]3CCCOC3)nc12` [Compound 116, (S)-8-(isopropylamino)-2-((tetrahydro-2H-pyran-3-yl)amino)pyrido[3,4-d]pyrimidine-6-carbonitrile], for which the IC50 against CDK5/p25NCK is 63 nM; against CDK2/CycA2 it was 29 nM; against CDK3/CycE1, 92 nM; on CDK1/CycE1, 114 nM; against CDK9/CycT1, 2 nM.

As for `CC(C)Nc1nc(C#N)cc2cnc(N[C@H]3CC[C@H](N)CC3)nc12` [Compound 136, 2-(((1r,4r)-4-aminocyclohexyl)amino)-8-(isopropylamino)pyrido[3,4-d]pyrimidine-6-carbonitrile], the IC50 on CDK5/p25NCK worked out at 116 nM; on CDK2/CycA2, 13 nM; against CDK3/CycE1, 27 nM; on CDK1/CycE1, 315 nM; at CDK9/CycT1, 2 nM.

In the case of `CC1(Oc2nc(C#N)cc3cnc(N[C@H]4CCCNC4)cc23)CC1` [Compound 204, (S)-1-(1-methylcyclopropoxy)-7-(piperidin-3-amino)-2,6-naphthyridine-3-carbonitrile], the IC50 against CDK5/p25NCK worked out at 523 nM; at CDK2/CycA2, 1010 nM; at CDK3/CycE1 it was 1410 nM; on CDK1/CycE1 it was 903 nM; at CDK9/CycT1, 2 nM.

For the compound `FC(F)c1cc2cnc(N[C@H]3CCCNC3)cc2c(O[C@@H]2CCOC2)n1` [Compound 202, 7-(difluoromethyl)-N—((S)-piperidin-3-yl)-5-(((R)-tetrahydrofuran-3-yl)oxy)-2,6-naphthyridin-3-amine], the IC50 against CDK5/p25NCK came to 168 nM; at CDK2/CycA2, 337 nM; on CDK3/CycE1, 398 nM; on CDK1/CycE1, 521 nM; against CDK9/CycT1, 4 nM.

Take `CC(C)Nc1nc(C#N)cc2cnc(N[C@H]3CC[C@H](C)NC3)cc12` [Compound 103, 1-(isopropylamino)-7-(((3S,6S)-6-methylpiperidin-3-yl)amino)-2,6-naphthyridine-3-carbonitrile]: the IC50 turned out to be 294 nM at CDK5/p25NCK; 167 nM on CDK2/CycA2; 398 nM at CDK3/CycE1; 206 nM at CDK1/CycE1; 3 nM at CDK9/CycT1.

For `N#Cc1cc2cnc(N[C@H]3CCCNC3)cc2c(NC2CC2)n1` [Compound 175, (S)-1-(cyclopropylamino)-7-(piperidin-3-ylamino)-2,6-naphthyridine-3-carbonitrile], the IC50 stood at 435 nM on CDK5/p25NCK; 489 nM against CDK2/CycA2; 1480 nM against CDK3/CycE1; 234 nM at CDK1/CycE1; 3 nM against CDK9/CycT1.

`CC(C)Nc1nc(C(F)(F)F)cc2cnc(N[C@H]3CCCNC3)nc12` [Compound C46, (S)—N^8-isopropyl-N^2-(piperidin-3-yl)-6-(trifluoromethyl)pyrido[3,4-d]pyrimidine-2,8-diamine]: the IC50 at CDK5/p25NCK amounted to 60 nM; against CDK2/CycA2 it was 33 nM; on CDK3/CycE1 it was 8 nM; at CDK1/CycE1 it was 19 nM; against CDK9/CycT1, 2 nM.

Turning to `CCNc1nc(C#N)cc2cnc(N[C@H]3C[C@H](N)C3)cc12` [Compound 184, 7-(((trans)-3-aminocyclobutyl)amino)-1-(ethylamino)-2,6-naphthyridine-3-carbonitrile], the IC50 against CDK5/p25NCK amounted to 96 nM; on CDK2/CycA2, 125 nM; against CDK3/CycE1, 990 nM; on CDK1/CycE1, 163 nM; on CDK9/CycT1, 1 nM.

`N#Cc1cc2cnc(N[C@H]3CCCNC3)cc2c(O[C@@H]2CCOC2)n1` [Compound 154, 7-(((S)-piperidin-3-yl)amino)-1-(((R)-tetrahydrofuran-3-yl)oxy)-2,6-naphthyridine-3-carbonitrile]: the IC50 came to 3840 nM against CDK5/p25NCK; 2320 nM at CDK2/CycA2; 371 nM on CDK3/CycE1; 1020 nM on CDK1/CycE1; 5 nM against CDK9/CycT1.

Turning to `CC(C)Nc1nc(C#N)cc2cnc(N[C@@H]3CN4CCC3CC4)nc12` [Compound C45, (S)-8-(isopropylamino)-2-(quinuclidin-3-ylamino)pyrido[3,4-d]pyrimidine-6-carbonitrile], the IC50 came to 7980 nM against CDK5/p25NCK; 1310 nM against CDK2/CycA2; 340 nM against CDK3/CycE1; 467 nM on CDK1/CycE1; 6 nM on CDK9/CycT1.
